“Also recorded” adds a separate entry of the source. Marks after values point to notes of the source that are not given here.

One assay has as its system myelinated fibers. Put plainly: Axonal size-frequency distribution of myelinated fibers in sciatic nerve. The format is in vivo, rat. The following applies: galactose-fed rats. The protocol: These studies were conducted with the approval of the San Diego Veterans Administration Animal Studies Subcommittee. Female Sprague-Dawley rats (240-300 g; Charles River, San Diego, Calif.) were housed in cages with wire bottoms to reduce contact with urine and feces. Groups were established and fed either a 40% D-galactose diet or a control diet specially formulated by Purina that contained 40% solka floc, a nonnutritive fiber, to balance nutritional intake. All diets contained 100% of the micronutrients required by rats and, with water, were available ad libitum. Each of these diet groups contained animals that were treated with the ARI, Ponalrestat (50 mg/kg), daily by oral gavage. After two months, rats were anesthetized by intraperitoneal injection (1 ml/kg ip) of pentobarbital sodium (12.5 mg/ml) and diazepam (1.25 mg/ml) in bacteriostatic saline. Under deep anesthesia, motor nerve conduction velocity (MNCV) was measured in the left hindlimb prior to removal of the sciatic nerve. The proximal portion was processed for subsequent light microscopic examination and the distal portion used for gas chromatographic analysis of nerve polyols. The contralateral sciatic nerve was removed and used for assay of CNTF-like neurotrophic activity and either Northern blot or ELISA analysis of CNTF mRNA or protein, respectively.
For light microscopic examination, proximal portions of sciatic nerve were fixed in 2.5% phosphate-buffered glutaraldehyde (490 mosmol/kg H2O). Tissue was then postfixed in 1% aqueous osmium tetroxide for 3 to 4 hours before dehydration using a series of graded alcohols and propylene oxide. […]
In each animal, computer-assisted analysis of the axonal size-frequency distributions of myelinated fibers was performed on a single thick section sampled from the tibial fascicle midway between the sciatic notch and popliteal fossa as described in detail previously by Forcier et al. (1991) J. Neuropathol. […] Briefly, video images (Cohu, San Diego, Calif.) of the tibial fascicle obtained with an Olympus light microscope were analyzed using a VAXstation II/GPX processor (Digital Equipment Corp., Boston, Mass.) with data translation imaging hardware (DT 2651, Data Translation, Marlboro, Mass.) for digitization of single video frames and an image processing board (DT2658) for mathematical operations. […]
Two months of galactose feeding was associated with a shift in the axonal size-frequency distribution of myelinated fibers towards those with smaller diameter axons (FIG. 4). […] Data are presented as the mean ±SD (N=8 to 10 per group) and were analyzed with a one way ANOVA after which multiple comparisons were made with the Student-Newman-Keuls test. […]

The next assay concerns CNTF. As to the kind of experiment: Striatal CNTF levels by ELISA. The following applies: adult rats, oral 50 mg/kg/day for two months. The class given is in vivo, rat. Here is the method:
CNTF protein was determined with an ELISA that utilizes a monoclonal capture antibody which recognizes a non-C-terminal epitope on both rat and human CNTF (Regeneron, Tarrytown, N.Y.). The captured CNTF was recognized by a polyclonal rabbit anti-rCNTF reporter antibody. An alkaline phosphatase-tagged goat anti-rabbit IgG was used to generate the signal. In practice, 96-well Immulon plates were coated with capture antibody overnight, then blocked and washed. After overnight incubation of standards and samples, plates were washed and reporter antibody added. Following final washes, the reaction was developed using the GIBCO BRL ELISA amplification system substrate and amplifier. The reaction was stopped with 0.5 N H2SO4 and the plates read at two wavelengths (490 nm and 650 nm).
ARIs Toirestat and Ponalrestat were orally administered to adult rats at a dose of 50 mg/kg/day for two months as described in Example 1 and in Mizisin et al (1997) Diabetes 46: 647-652. For each rat, the left and right striatum were dissected and combined for homogenization in phosphate buffered saline. CNTF levels in extract preparations were then measured by ELISA, as described in Example 1. Four rats served as controls, and five rats each received Tolrestat and Ponalrestat. Five ELISA assays were run for each rat and one mean value derived for each rat.
(ELISA stands for enzyme-linked immunosorbent assay.)

`O=C(O)Cc1nn(Cc2ccc(Br)cc2F)c(=O)c2ccccc12` [Ponalrestat, 3-(4-bromo-2-fluorobenzyl)-4-oxo-3H-phthalazin-1-ylacetic acid]: the “Relative number, Medium myelinated axons” value with myelinated fibers (diameter >3 μm but <7 μm, Ponalrestat 50 mg/kg daily oral, two months) is listed as 45.2 ± 5.0^a %. Further, the “Relative number, Small myelinated axons” value in the assay with myelinated fibers (diameter ≦3 μm, Ponalrestat 50 mg/kg daily oral, two months) was 17.7 ± 4.9%. In addition, the “Relative number, Large myelinated axons” value in the assay on myelinated fibers (diameter ≧7 μm, Ponalrestat 50 mg/kg daily oral, two months) is recorded as 37.1 ± 6.7^a %. The “Changes in axonal caliber” value with myelinated fibers is “prevented”. For the same compound, the “Increase in striatal CNTF activity level versus control group” value with CNTF is listed as “significantly increased; also recorded: approximately three-fold”.

(Values after US6696407B1, “Huntington's disease treatment comprising administering aldose reductase inhibitors to increase striatal CNTF” (The Regents of the University of California, priority 1997, dated 2004).)
